Experimental data taken from article PMC7655067, “Crystal structure-guided design of berberine-based novel chitinase inhibitors” (Journal of Enzyme Inhibition and Medicinal Chemistry, 2020).
Structures can show the parent of a compound that is named as a salt. Where two headings read alike, the source gives them in different places. Each block holds one molecule with its values, some of them ahead of it.

Experiments:
HsCht [1] = biological target: T1, HsCht (Homo sapiens, UniProt Q13231); assay: Inhibitory activity assay with MU-(GlcNAc)2, Ki by Dixon plots; assay type: biochemical; conditions: pH 6.0
T1 construct: including the catalytic domains of OfChtI from O. furnacalis, human HsCht and human hAMCase; made in house; host or cells: Pichia pastoris GS115
T1 sequence (Q13231 22-388 limits assumed): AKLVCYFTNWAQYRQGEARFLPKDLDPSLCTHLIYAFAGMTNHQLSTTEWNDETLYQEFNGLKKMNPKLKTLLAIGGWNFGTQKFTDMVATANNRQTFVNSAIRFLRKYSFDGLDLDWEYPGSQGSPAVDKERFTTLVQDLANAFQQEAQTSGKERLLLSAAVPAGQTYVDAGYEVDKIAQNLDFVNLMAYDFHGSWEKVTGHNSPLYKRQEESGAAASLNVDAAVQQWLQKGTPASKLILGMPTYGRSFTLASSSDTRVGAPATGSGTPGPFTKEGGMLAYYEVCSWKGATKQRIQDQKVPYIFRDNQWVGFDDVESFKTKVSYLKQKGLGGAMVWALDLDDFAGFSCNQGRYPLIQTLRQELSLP
Procedure: (§1) ChiB from S. marcescens was expressed in Escherichia coli BL21 (DE3). The other GH18 chitinases including the catalytic domains of OfChtI from O. furnacalis, human HsCht and human hAMCase were expressed in P. pastoris GS115. All the proteins were purified by immobilised metal affinity chromatography (IMAC) as described previously. The purities of the target proteins were analysed by SDS-PAGE followed by Coomassie Brilliant Blue R-250 staining.
(§2) The activity of GH18 chitinases were determined using MU-(GlcNAc)2 as a substrate. The reaction mixtures used for determining the inhibitor activity of compounds consisted of 100 μL of 20 nM enzyme, 4 μM MU-(GlcNAc)2, 1 or 10 μM inhibitors and 2% DMSO in the buffer (20 mM sodium phosphate, pH 6.0, for SmChiB, OfChtI and HsCht; 20 mM sodium citrate, pH 5.2, for hAMCase). The reaction in the absence of compounds was used as a positive control. After incubating at 30 °C for 25 min, an equal volume of 0.5 M sodium carbonate was added to the reaction mixtures to terminate the reaction, and the fluorescence produced by the released MU was quantified using a Varioskan Flash microplate reader (Thermo Fisher Scientific, Waltham, MA), with excitation and emission wavelengths of 360 and 450 nm, respectively. Experiments were performed in triplicate. […] The Ki values and types of inhibition were determined by linear fitting of the data in Dixon plots.

hAMCase [2] = biological target: T2, hAMCase (Homo sapiens, UniProt Q9BZP6); assay: as above; assay type: biochemical; conditions: pH 5.2
T2 construct: including the catalytic domains of OfChtI from O. furnacalis, human HsCht and human hAMCase; made in house; host or cells: Pichia pastoris GS115
T2 sequence (Q9BZP6 22-390 limits assumed): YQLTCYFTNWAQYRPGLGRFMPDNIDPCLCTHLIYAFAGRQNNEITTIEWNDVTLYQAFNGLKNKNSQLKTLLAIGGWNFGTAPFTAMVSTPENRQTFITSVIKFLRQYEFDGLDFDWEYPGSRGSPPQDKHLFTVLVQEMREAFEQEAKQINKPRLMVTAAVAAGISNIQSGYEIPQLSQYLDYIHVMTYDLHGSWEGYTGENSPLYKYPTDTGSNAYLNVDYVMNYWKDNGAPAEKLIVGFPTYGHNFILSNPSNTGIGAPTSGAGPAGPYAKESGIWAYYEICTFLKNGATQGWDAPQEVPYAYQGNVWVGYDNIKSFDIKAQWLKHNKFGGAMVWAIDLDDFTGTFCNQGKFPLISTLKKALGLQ
Procedure: as §1, §2

OfChtI [3] = biological target: T3, OfChtI (Ostrinia furnacalis, UniProt Q2V6H4); assay: as above; assay type: biochemical; conditions: for Ki: pH 6.0, Dixon plots
T3 sequence (Q2V6H4 entry or part of it): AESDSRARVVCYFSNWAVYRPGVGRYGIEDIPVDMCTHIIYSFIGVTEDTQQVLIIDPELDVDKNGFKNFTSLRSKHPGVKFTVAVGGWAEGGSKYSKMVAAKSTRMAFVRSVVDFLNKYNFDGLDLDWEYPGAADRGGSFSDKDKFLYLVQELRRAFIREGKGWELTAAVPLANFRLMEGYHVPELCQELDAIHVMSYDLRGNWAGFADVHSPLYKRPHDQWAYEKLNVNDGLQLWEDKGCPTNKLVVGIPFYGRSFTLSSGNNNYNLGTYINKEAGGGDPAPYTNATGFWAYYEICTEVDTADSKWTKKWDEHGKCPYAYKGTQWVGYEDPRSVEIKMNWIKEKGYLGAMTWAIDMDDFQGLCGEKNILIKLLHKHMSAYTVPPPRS
Procedure: as §1, §2

SmChiB [4] = biological target: T4, SmChiB (Serratia marcescens, UniProt P11797); assay: Tryptophan fluorescence quenching, Kd by modified Stern-Volmer equation; assay type: binding
T4 construct: made in house; host or cells: Escherichia coli BL21 (DE3)
T4 sequence (P11797 42-499): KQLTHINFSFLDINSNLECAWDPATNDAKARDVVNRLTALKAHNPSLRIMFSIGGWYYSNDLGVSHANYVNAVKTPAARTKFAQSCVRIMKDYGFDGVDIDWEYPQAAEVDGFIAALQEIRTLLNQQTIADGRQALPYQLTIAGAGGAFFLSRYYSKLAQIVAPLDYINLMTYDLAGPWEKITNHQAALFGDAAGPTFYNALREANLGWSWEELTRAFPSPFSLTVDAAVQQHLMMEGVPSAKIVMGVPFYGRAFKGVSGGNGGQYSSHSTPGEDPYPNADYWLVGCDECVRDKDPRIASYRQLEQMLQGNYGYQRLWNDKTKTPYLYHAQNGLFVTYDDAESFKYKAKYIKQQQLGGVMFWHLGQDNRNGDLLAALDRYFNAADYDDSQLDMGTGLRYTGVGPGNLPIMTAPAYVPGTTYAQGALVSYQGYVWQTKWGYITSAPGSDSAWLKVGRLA
Procedure: (§3) Tryptophan fluorescence (295 nm excitation) was measured at 25 °C from 300 to 400 nm with a Varioskan Flash microplate reader using excitation and emission band passes of 5 nm. Fluorescence quenching experiments were performed in a 200 μL mixture containing 1 μM protein in the buffer (20 mM sodium phosphate, pH 6.0, for SmChiB, OfChtI and HsCht; 20 mM sodium citrate, pH 5.2, for hAMCase), and by the successive addition of aliquots of compounds stock solution. Since the crystal structure confirmed that berberine binding to SmChiB in a 1:1 ratio, the dissociation constant Kd were then determined using the modified Stern-Volmer equation[35]^,[36]. […]

SmChiB [5] = biological target: T4, SmChiB; assay: biochemical; assay type: biochemical
Procedure: as §1, §2

OfChtI [6] = biological target: T3, OfChtI; assay: Tryptophan fluorescence quenching, Kd by modified Stern-Volmer equation; assay type: binding
Procedure: as §3

HsCht [7] = biological target: T1, HsCht; parameters: method as in PMID 30135205; conditions: cited from earlier work
OfChtI [8] = biological target: T3, OfChtI; parameters: method as in PMID 30135205; conditions: cited from earlier work
hAMCase [9] = biological target: T2, hAMCase; parameters: method as in PMID 30135205; conditions: cited from earlier work
HsCht [10] = biological target: T1, HsCht; assay: Tryptophan fluorescence quenching, Kd by modified Stern-Volmer equation; assay type: binding; conditions: pH 6.0
Procedure: (§4) Fluorescence quenching experiments were performed in a 200 μL mixture containing 1 μM protein in the buffer (20 mM sodium phosphate, pH 6.0, for SmChiB, OfChtI and HsCht; 20 mM sodium citrate, pH 5.2, for hAMCase), and by the successive addition of aliquots of compounds stock solution.

hAMCase [11] = biological target: T2, hAMCase; assay: as above; assay type: binding; conditions: pH 5.2
Procedure: as §4

[12] = SmChiB, tryptophan fluorescence quenching, pH 6.0, read-out: Kd
[13] = SmChiB, pH 6.0, Dixon plots, read-out: Ki

SMILES: COC(=O)CCC(=O)Oc1c(OC)ccc2cc3[n+](cc12)CCc1cc2c(cc1-3)OCO2 [4a]
Ki (HsCht [1]): 8.23 µM
Ki (hAMCase [2]): 7.43 µM
Ki (OfChtI [3]): 6.43 µM
Kd (SmChiB [4]; [12]): 1.12 µM
Ki (SmChiB [5]; [13]): 0.68 µM

SMILES: COc1ccc2cc3[n+](cc2c1OC(=O)c1ccc(F)nc1)CCc1cc2c(cc1-3)OCO2 [4c]
inhibitory activity increase compared to berberine (OfChtI [3]; from Ki values): 7.5 fold
Ki (OfChtI [3]): 3.03 µM
Kd (SmChiB [4]; [12]): 0.19 µM
Kd (OfChtI [6]; OfChtI, tryptophan fluorescence quenching, pH 6.0, read-out: Kd): 2.58 µM
Ki (SmChiB [5]; [13]): 0.15 µM

SMILES: COc1ccc2cc3[n+](cc2c1OC)CCc1cc2c(cc1-3)OCO2 [Berberine, berberine]
Ki (HsCht [7]): 19 µM
type of inhibition (HsCht [7]): competitive inhibitor
Kd (SmChiB [4]): 12 µM
Kd (OfChtI [6]): 20.6 µM
Ki (SmChiB [5]): 11.8 µM
type of inhibition (SmChiB [5]; SmChiB, Dixon plots): competitive inhibitor
Ki (OfChtI [8]): 23 µM
type of inhibition (OfChtI [8]): competitive inhibitor
Ki (hAMCase [9]): 65 µM
type of inhibition (hAMCase [9]): competitive inhibitor
Kd (HsCht [10]): 21.9 µM
Kd (hAMCase [11]): 58 µM

The remaining lines, values ahead:

Ki (HsCht [1]): 11.4 µM
Ki (hAMCase [2]): 4.62 µM
Ki (OfChtI [3]): 7.28 µM
Kd (SmChiB [4]; [12]): 2.99 µM
Ki (SmChiB [5]; [13]): 2.36 µM
SMILES: COc1ccc2cc3[n+](cc2c1OC(=O)c1ccccc1)CCc1cc2c(cc1-3)OCO2 [4b]

melting point: 192 °C (dec.)
SMILES: COC(=O)CCC(=O)Oc1c(OC)ccc2cc3[n+](cc12)CCc1cc2c(cc1-3)OCO2 (as salt: chloride) [4a]
